“And” between values parts separate entries of the source, which are not always exact repeats. Equal entries are not always repeated. Where two headings read alike, the source gives them in different places.

In test [1] the test system is human myeloma cell lines (HMCLs). The experiment in a line: Growth assay for myeloma cells (Cell Titer Glo, 4 days, graded DNMTi concentrations). The conditions noted are these: for IC50: Homo sapiens, 96 h, 4 days. It is filed as cell-based. The procedure: HMCLs were cultured for 4 days in 96-well flat-bottom microtiter plates in RPMI 1640 medium, 10% FCS, 2 ng/ml IL-6 culture medium (control), with graded decitabine concentrations. Data are mean values plus or minus standard deviation (SD) of 5 experiments determined on sextuplet culture wells.
HMCLs were cultured for 4 days in 96-well flat-bottom microtiter plates in RPMI 1640 medium, 10% FCS, 2 ng/ml IL-6 culture medium (control), and graded 5-azacitidine concentrations. Data are mean values plus or minus standard deviation (SD) of 5 experiments determined on sextuplet culture wells.
HMCLs were cultured for 4 days in 96-well flat-bottom microtiter plates in RPMI 1640 medium, 10% FCS, 2 ng/ml IL-6 culture medium (control), with graded decitabine concentrations. Cell growth was evaluated by quantifying intracellular ATP amount with a Cell Titer Glo Luminescent Assay (Promega, Madison, Wis.) with a Centro LB 960 luminometer (Berthold Technologies, Bad Wildbad, Germany).
The inventors sought to determine whether DM Score could predict for the sensitivity of 10 HMCLs to DNMT inhibitor. Starting from a large cohort of 40 HMCLs (22), the 10 HMCLs with the highest or lowest DM Score were selected to assay decitabine sensitivity.
HMCLs were cultured with graded 5-azacitidine (Sigma, St. Louis, Mo.) concentrations. HMCLs cell growth was quantified with a Cell Titer Glo Luminescent Assay (Promega, Madison, Wis.) and half inhibitory concentration (IC50) was determined using GraphPad Prism (http://www.graphpad.com/scientific-software/prism/).
On the technique in general: Cellular ATP, detected with luciferase, serves as a proxy for viable cell number.

Test [2] deals with primary myeloma cells of patients (CD138+ viable plasma cells). The experiment in a line: Mononuclear cell culture of patients' tumor samples, count of viable CD138+ myeloma cells by flow cytometry. It is filed as cell-based, human. As to the method: Mononuclear cells from tumor samples of 12 patients with MM were cultured for 4 days in the presence of IL-6 (2 ng/ml) with or without graded decitabine concentrations. At day 4 of culture, the cell count and the viability were determined and the percentage of CD138^+ viable plasma cells was determined by flow cytometry. Black color represents patients with high DM Score (N=6) and white represents patients with low DM Score values (N=6).
Mononuclear cells from tumor samples of 14 patients with MM were cultured for 4 days in the presence of IL-6 (2 ng/ml) with or without graded 5-azacitidine concentrations. At day 4 of culture, the count of viable CD138′ MMCs was determined using flow cytometry. The black columns represent the mean±SD of primary myeloma cell counts (expressed as the percentage of the count without adding 5-azcytidine) of the 7 patients with a low DM Score and the white columns that of the 7 patients with a high DM Score.
Mononuclear cells from tumor samples of 12 patients with MM (agreement of the Center for Biological Resources of Montpellier University Hospital (N° DC-2008-417)) were cultured for 4 days at 2×10^5 cells/ml in RPMI 1640 medium, 10% FCS, 2 ng/ml IL-6, with or without graded concentrations of decitabine. In each culture group, viability and cell counts were assayed and MMCs were stained with an anti-CD138-PE mAb (Immunotech, Marseille, France) as previously described (32).
Primary myeloma cells of 14 patients were cultured with or without graded concentrations of 5-azacitidine and MMC cytotoxicity evaluated using anti-CD138-PE mAb (Immunotech, Marseille, France) as described (Jourdan, et al 1998; Mahtouk, et al 2004; Moreaux, et al 2012).

`Nc1ncn([C@H]2C[C@H](O)[C@@H](CO)O2)c(=O)n1` [decitabine, 5-Aza-2′-deoxycytidine]: the “fold higher decitabine sensitivity” value was found to be 11 fold in test [1] (HMCLs with highest DM Score versus low DM Score, P=0.01) and 2.2 fold in test [2] (primary MMCs with DM Score above median (−19.7) versus below median, P<0.01). For the same molecule, the IC50 (commonly the point on the concentration scale where inhibition reaches its midpoint) was 2920 to 60800 nM in test [1] (decitabine, 5 HMCLs with low DM Score, read-out: IC50 range); 150 to 2220 nM in test [1] (read-out: IC50 range, decitabine, 5 HMCLs with the highest DM Score); 7940 nM in test [1] (read-out: median IC50, decitabine, 5 HMCLs with low DM Score); 680 nM in test [1] (read-out: median IC50, decitabine, 5 HMCLs with the highest DM Score). The “sensitivity class of HMCLs” value in test [1] (XG6, XG20, XG13, SKMM2, LP1 (lowest DM Score)) is “Resistant”; in test [1] (XG12, XG16, XG19, JJN3, RPMI8226 (highest DM Score)), “Sensitive”. Moreover, the “Myeloma cell number/culture well, Mean” value in test [2] (0.125 μM decitabine, day 4, mean of 6 patients with high DM Score) is on record as 54391; in test [2] (0.125 μM decitabine, day 4, mean of 6 patients with low DM Score), 43748; in test [2] (0.5 μM decitabine, day 4, mean of 6 patients with high DM Score), 38622; in test [2] (0.5 μM decitabine, day 4, mean of 6 patients with low DM Score), 38834; in test [2] (2 μM decitabine, day 4, mean of 6 patients with high DM Score), 24024; in test [2] (2 μM decitabine, day 4, mean of 6 patients with low DM Score), 30672. Also, the “Myeloma cell number/culture well, Mean” value in test [2] (8 μM decitabine, day 4, mean of 6 patients with high DM Score) was 12808; in test [2] (8 μM decitabine, day 4, mean of 6 patients with low DM Score), 26080. Besides, the “Myeloma cell number/culture well” value was 43320 and 49096 and 40432 and 63536 and 69312 and 60648 in test [2] (0.125 μM decitabine, day 4, single patients with high DM Score); 26100 and 51984 and 77976 and 54336 and 1066 and 51024 in test [2] (0.125 μM decitabine, day 4, single patients with low DM Score); 36738 (2×) and 31086 and 28260 and 56520 and 42390 in test [2] (0.5 μM decitabine, day 4, single patients with high DM Score); 27195 and 45216 and 53694 and 51300 and 870 and 54726 in test [2] (0.5 μM decitabine, day 4, single patients with low DM Score); 20592 (2×) and 22880 and 18304 and 29744 and 32032 in test [2] (2 μM decitabine, day 4, single patients with high DM Score); 21028 and 32032 and 22880 and 51230 and 1044 and 55818 in test [2] (2 μM decitabine, day 4, single patients with low DM Score). Moreover, the “Myeloma cell number/culture well” value in test [2] (8 μM decitabine, day 4, single patients with high DM Score) is 5800 and 11600 and 10150 and 18850 and 17400 and 13050; in test [2] (8 μM decitabine, day 4, single patients with low DM Score), 18265 and 21750 and 14500 and 53486 and 1039 and 47440.

For the origin of these results see patent publication US20150218654A1, “METHODS FOR PREDICTING MULTIPLE MYELOMA TREATMENT RESPONSE” (INSERM (INSTITUT NATIONAL DE LA SANTÉ ET DE LA RE- CHERCHE …, priority 2012, published 2015).
